These results are taken from patent publication US10588935B2, “FC receptor (FcRn) binding peptides and uses thereof” (THE BRIGHAM AND WOMEN'S HOSPITAL, INC., priority 2013, dated 2020).

In one test the target is FcRn (Homo sapiens, UniProt P55899). Kind of test: Competition for albumin or IgG binding to FcRn. The following applies: for competition with IgG or albumin for the FcRn binding site: competition experiments / SPR. Also noted: Soluble human FcRn was expressed and purified by Biogen-Idec as previously described (29). An excerpt:
Peptide phage libraries, obtained from Dyax Corp, were screened against biotinylated soluble human FcRn bound to streptavidin beads, using 3 rounds of sequential pH 6.0 binding and pH 7.5 elution/amplification protocols. […] Peptide SYN514 was utilized during a 2nd peptide phage screen to occupy this site on FcRn prior to the addition of the phage libraries, and to identify albumin-competitive sequences. This strategy uncovered the albumin-competitive peptide, SYN571, and through structure-activity relationships, the shorter sequence SYN1753 (Ac-[…]-CONH2 (SEQ ID NO: 1) (disulfide) which bound to shFcRn with equivalent affinity as determined by SPR.

Another test deals with shFcRn binding to HSA (Homo sapiens, UniProt P55899). In words: SPR screening of FcRn binding peptides for inhibition of shFcRn binding to immobilized HSA. The following applies: 14 uM peptide, 5 uM shFcRn, pH 6. As for the experimental part:
Unreacted sites were then capped by injecting a solution of ethanolamine over the chip surface. A reference flow cell was activated with EDC/NHS and then blocked with ethanolamine.
Samples were injected over the chip for 3 minutes at 20 uL/min followed by a 2.5 minute dissociation phase.

The next test has as its target T1, soluble human FcRn (Homo sapiens, UniProt P55899).
T1 construct: Soluble human FcRn was expressed and purified by Biogen-Idec as previously described (29)
In words: SPR (Biacore) affinity of peptides for immobilized soluble human FcRn. Type of test: binding. The procedure, abridged:
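FcRn amine-coupled to CM5 chip; binding run at pH 6.0 or 7.4 in 50 mM phosphate, 100 mM NaCl, 0.01% P20, with 5-minute dissociation and pH 8.0 Tris regeneration. KD derived from sensorgrams with a 1:1 binding model; end-of-association responses plotted versus concentration.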

The test system of test [1] is hFCGRT^Tg/hB2m^Tg/mFcgrt^−/− mice. Kind of test: In vivo acetaminophen toxicity with blockade of FcRn-albumin interaction. Further details: species or system mouse. The following applies: 40 mg/kg body weight per day via i.p. osmotic pump; vs control peptide. As for the experimental part:
In vivo acetaminophen toxicity experiments: Acetaminophen (Sigma-Aldrich) was diluted in PBS at a concentration of 33.3 mg/ml. […] In blocking experiments using antibody administration, ADM31 or isotype control were administered 14 h prior to the injection of APAP. For blocking the interaction between FcRn and albumin via peptide, a cyclic control peptide for SYN3258 was designed in which three key residues per monomer that were identified by alanine screening to be critical for binding between FcRn and albumin were mutated to alanines (W7A, W11A, […]). SYN3258 or the control peptide were then continuously administered at a dose of 40 mg/kg body weight per day via i.p. osmotic pumps (Alzet, Cupertino, Cat. No 1003D) over a 72 hour period. Prior to the surgical implantation of the pumps, mice were anaesthetized with Buprenex (0.1 mg/kg body weight) s.c. and Ketamine HCl (100 mg/kg)/Xylazine (10 mg/kg) i.p. Hair on the incision site was clipped and the implantation area was disinfected by 5% iodine in 70% isopropanol. Antibiotics (100 μg/ml of gentamycin) were sprayed on the area of incision to prevent infection, and skin was sutured using polypropylene suture. Total duration of the surgical procedure was around 5 minutes per mouse. 18-20 hours after pump implantation, a lethal dose of acetaminophen was administered i.p.

The test system of test [2] is MDCK II cells expressing hFcRn and hβ2m. Kind of test: FcRn dependent albumin transcytosis bioassay. Type of test: cell-based, canine. The following applies: input chamber pH 6.0, exit pH 7.4, 2 hours, compared to scrambled peptide or isotype control. As for the experimental part: Albumin transcytosis assays were performed as previously described for IgG. In brief, MDCK II cells expressing hβ2m and hFcRn were grown to confluence on transwells (Costar) and allowed to polarize over 4 days. 12 hours before the transcytosis experiment, the medium was changed to serum-free media without antibiotics. On the day of experiment, the transwells were incubated with HBSS pH 7.4 for 20 minutes before placing on a new 12 well plate (Costar) where the input chamber contains HBSS pH 6.0 and the exit chamber contains HBSS pH 7.4 and pH adjusted albumin was added to the input chamber afterwards. For blocking albumin transcytosis with the peptide inhibitors SYN1753 and SYN3258, transwells were pre-incubated for 20 min with the respective peptides in HBSS pH 6.0 prior to the addition of albumin in the continued presence of the peptides. After incubating for 2 hours in 37° C. and 5% CO2, the medium at the opposite chamber were harvested and the albumin concentration was measured using ELISA method. For the recycling assay, the transwells were washed with HBSS pH 7.4 for 5 minutes before placing on a new 12-well plate with HBSS pH 6.0 at both chambers. After equilibration at 37° C. and 5% CO2, pH adjusted albumin human albumin was added and allowed to incubate for one hour. The transwells were then washed at HBSS pH 6.0 before placing in a new 12-well plate with HBSS pH 7.4 at both chambers. After one hour incubation, medium from the input chamber was removed and the albumin concentration was measured by ELISA. For the human albumin secretion assay the medium was changed to serum- and antibiotic-free media on the day of the experiment. 50 μL of the medium from both chambers were removed periodically over 24 hours, and the human albumin concentration was measured using ELISA with volume reduction adjustment.

Where [3] appears, read: Table 2, pH 6, immobilized shFcRn, data fit steady state or 2 site, read-out: Kd, pH 6** Biacore.
Where [4] appears, read: Table 2, pH 7.4, data only 100 uM, therefore Kd may be higher, read-out: Kd, pH 7.4 Biacore.
The mark [5] stands for this setting: pH 6.0, read-out: affinity for FcRn by SPR.

Several values for one entry are separate records, joined by “and”; a condition that tells them apart may be missing. Identical values can stand only once. Entries after “also recorded” stand apart in the source; their conditions may differ. Like-named read-outs stand apart in the source and are kept apart here. Bridge positions count the residues as written; N and C are the ends. Peptide text beside a SMILES is read from it.

T1 sequence (P55899 24-297 limits assumed): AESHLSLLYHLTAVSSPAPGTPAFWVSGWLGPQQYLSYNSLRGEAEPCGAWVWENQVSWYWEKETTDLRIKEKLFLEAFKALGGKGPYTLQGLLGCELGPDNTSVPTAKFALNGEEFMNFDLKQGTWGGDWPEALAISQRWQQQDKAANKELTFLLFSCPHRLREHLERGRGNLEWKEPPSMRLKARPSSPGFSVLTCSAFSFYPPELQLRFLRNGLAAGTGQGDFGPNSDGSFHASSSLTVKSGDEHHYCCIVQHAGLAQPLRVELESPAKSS
T1 sequence (P61769 21-119 partner): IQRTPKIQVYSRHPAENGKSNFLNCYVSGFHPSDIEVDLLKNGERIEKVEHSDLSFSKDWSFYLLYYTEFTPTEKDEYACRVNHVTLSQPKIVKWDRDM
Chain of FcRn (P55899 24-297 limits assumed): as the sequence (P55899 24-297 limits assumed) above
Chain of FcRn (P61769 21-119 partner): as the sequence (P61769 21-119 partner) above
Chain of shFcRn binding to HSA (P55899 24-297 limits assumed): as the sequence (P55899 24-297 limits assumed) above
Chain of shFcRn binding to HSA (P61769 21-119 partner): as the sequence (P61769 21-119 partner) above

In the case of “Ac-AGVMHCFWDEEFKCDQGGTGGGK-CONH2 (Ac-AGVMHCFWDEEFKCDQGGTGGGK-NH2; disulfide 6-14 (inferred)) [SYN514]”, in the test with FcRn, the “competition with IgG or albumin for the FcRn binding site” value (shortened to “competition with IgG or albumin”) is “non-IgG, non-albumin competitive”.
Turning to `CC(=O)N[C@@H](C)C(=O)NCC(=O)N[C@@H](CCCNC(=N)N)C(=O)N[C@@H](Cc1ccc(O)cc1)C(=O)N[C@@H](Cc1ccccc1)C(=O)N[C@H]1CSSC[C@@H](C(=O)N[C@@H](CCC(=O)O)C(=O)N[C@@H](CCC(=O)O)C(=O)N[C@H](C(=O)NCC(=O)N[C@H](C(=O)NCC(=O)NCC(=O)NCC(=O)N[C@@H](CCCCN)C(N)=O)[C@@H](C)O)C(C)C)NC(=O)[C@H](Cc2c[nH]c3ccccc23)NC(=O)CNC(=O)[C@H](Cc2c[nH]cn2)NC(=O)[C@H](CCCCN)NC(=O)[C@H](Cc2c[nH]c3ccccc23)NC(=O)[C@H](CCCCN)NC(=O)[C@H]([C@@H](C)O)NC1=O` [SYN571] (Ac-AGRYFCTKWKHGWCEEVGTGGGK-NH2; disulfide 6-14), the “block of shFcRn binding to immobilized HSA” value at shFcRn binding to HSA is reported as “completely block”. Also, on soluble human FcRn (Table 1), the “Kd Ratio 7.4/6.0” value is recorded as 29. Further, the Kd at soluble human FcRn (Table 1, pH 6, shFcRn immobilized on the sensor chip, steady state fit, read-out: Kd, pH 6** Biacore) was 0.45 µM and 0.5 µM; on soluble human FcRn (Table 1, pH 7.4, shFcRn immobilized, read-out: Kd, pH 7.4 Biacore), 13.1 µM. The “competition with IgG or albumin” value at FcRn is recorded as “albumin-competitive; also recorded: inhibit shFcRn:albumin interactions, but not those of IgG: shFcRn”.
For the molecule `CSCC[C@H](NC(=O)[C@@H](NC(C)=O)C(C)C)C(=O)N[C@@H](Cc1c[nH]cn1)C(=O)N[C@H]1CSSC[C@@H](C(=O)N[C@@H](CCC(=O)O)C(=O)N[C@@H](Cc2ccc(O)cc2)C(=O)N[C@H](C(N)=O)C(C)C)NC(=O)[C@H](CCCNC(=N)N)NC(=O)[C@H](Cc2ccccc2)NC(=O)[C@H](CCC(=O)O)NC(=O)[C@H](CCC(=O)O)NC(=O)[C@H](CC(=O)O)NC(=O)[C@H](Cc2c[nH]c3ccccc23)NC(=O)[C@H](Cc2ccccc2)NC1=O` [SYN1383] (Ac-VMHCFWDEEFRCEYV-NH2; disulfide 4-12 (inferred)), the “block of shFcRn binding to immobilized HSA” value on shFcRn binding to HSA is listed as “not able to block the binding of shFcRn to HSA”. Moreover, the “Kd Ratio 7.4/6.0” value on soluble human FcRn (Table 2) amounted to 34. Also, the Kd on soluble human FcRn (setting [3]) was found to be 0.032 µM; on soluble human FcRn (setting [4]), 1.1 µM. The “Competition for albumin or IgG binding to FcRn” value on FcRn (Table 3) is “none”. At FcRn, the “competition with IgG or albumin” value is recorded as “not been shown to be competitive with IgG or any other proteins; also recorded: does not block IgG binding to FcRn; also recorded: non-IgG, non-albumin competitive”.
As to `CC(=O)N[C@@H](CCCNC(=N)N)C(=O)N[C@@H](Cc1ccc(O)cc1)C(=O)N[C@@H](Cc1ccccc1)C(=O)N[C@H]1CSSC[C@@H](C(=O)N[C@@H](CCC(=O)O)C(=O)N[C@@H](CCC(=O)O)C(=O)N[C@H](C(=O)NCC(=O)N[C@H](C(=O)NCC(=O)NCC(=O)NCC(=O)N[C@@H](CCCNC(=N)N)C(=O)N[C@@H](Cc2ccc(O)cc2)C(=O)N[C@@H](Cc2ccccc2)C(=O)N[C@H]2CSSC[C@@H](C(=O)N[C@@H](CCC(=O)O)C(=O)N[C@@H](CCC(=O)O)C(=O)N[C@H](C(=O)NCC(=O)N[C@H](C(N)=O)[C@@H](C)O)C(C)C)NC(=O)[C@H](Cc3c[nH]c4ccccc34)NC(=O)CNC(=O)[C@H](Cc3c[nH]cn3)NC(=O)[C@H](CCCCN)NC(=O)[C@H](Cc3c[nH]c4ccccc34)NC(=O)[C@H](CCCCN)NC(=O)[C@H]([C@@H](C)O)NC2=O)[C@@H](C)O)C(C)C)NC(=O)[C@H](Cc2c[nH]c3ccccc23)NC(=O)CNC(=O)[C@H](Cc2c[nH]cn2)NC(=O)[C@H](CCCCN)NC(=O)[C@H](Cc2c[nH]c3ccccc23)NC(=O)[C@H](CCCCN)NC(=O)[C@H]([C@@H](C)O)NC1=O` [SYN3258] (Ac-RYFCTKWKHGWCEEVGTGGGRYFCTKWKHGWCEEVGT-NH2; disulfide 4-12, 24-32), in test [1], the “protection from liver injury (serum ALT) after lethal dose of APAP” value is “conferred protection from liver injury” and the “survival rate after lethal dose of APAP” value is listed as “improve the survival rate”. Further, at soluble human FcRn (setting [5]), the Kd turned out to be 0.0036 µM. Further, the “transcytosis of human albumin” value in test [2] was “capable of blocking transcytosis of human albumin; also recorded: inhibit FcRn-directed transcytosis of albumin”. Besides, the “transcytosis of human albumin” value in test [2] (listed as Syn3258) is given as “significantly reducing”.
With `CC(=O)N[C@@H](CCCNC(=N)N)C(=O)N[C@@H](Cc1ccc(O)cc1)C(=O)N[C@@H](Cc1ccccc1)C(=O)N[C@H]1CSSC[C@@H](C(=O)N[C@@H](CCC(=O)O)C(=O)N[C@@H](CCC(=O)O)C(=O)N[C@H](C(=O)NCC(=O)N[C@H](C(N)=O)[C@@H](C)O)C(C)C)NC(=O)[C@H](Cc2c[nH]c3ccccc23)NC(=O)CNC(=O)[C@H](Cc2c[nH]cn2)NC(=O)[C@H](CCCCN)NC(=O)[C@H](Cc2c[nH]c3ccccc23)NC(=O)[C@H](CCCCN)NC(=O)[C@H]([C@@H](C)O)NC1=O` [SYN1753], the Kd is 0.5 µM on soluble human FcRn (Table 3, pH 6.0, read-out: Kd, pH 6.0 (Biacore μM)) and about 0.5 µM on soluble human FcRn (setting [5]). The “transcytosis of human albumin” value in test [2] is reported as “capable of blocking transcytosis of human albumin; also recorded: significantly reducing”.
In the case of `CSCC[C@H](NC(=O)[C@@H](NC(C)=O)C(C)C)C(=O)N[C@@H](Cc1c[nH]cn1)C(=O)N[C@H]1CSSC[C@@H](C(=O)N[C@@H](CC(=O)O)C(=O)N[C@@H](CCC(N)=O)C(=O)N[C@H](C(N)=O)C(C)C)NC(=O)[C@H](CCCCN)NC(=O)[C@H](Cc2ccccc2)NC(=O)[C@H](CCC(=O)O)NC(=O)[C@H](CCC(=O)O)NC(=O)[C@H](CC(=O)O)NC(=O)[C@H](Cc2c[nH]c3ccccc23)NC(=O)[C@H](Cc2ccccc2)NC1=O` [SYN1260] (Ac-VMHCFWDEEFKCDQV-NH2; disulfide 4-12 (inferred)), the “Kd Ratio 7.4/6.0” value at soluble human FcRn (Table 2) stood at 73. Besides, the Kd is 0.3 µM on soluble human FcRn (setting [3]) and 22 µM on soluble human FcRn (setting [4]).
Regarding `CSCC[C@H](NC(=O)[C@@H](NC(C)=O)C(C)C)C(=O)N[C@@H](Cc1c[nH]cn1)C(=O)N[C@H]1CSSC[C@@H](C(=O)N[C@@H](CC(=O)O)C(=O)N[C@@H](CCC(N)=O)C(=O)NCC(N)=O)NC(=O)[C@H](CCCNC(=N)N)NC(=O)[C@H](Cc2ccccc2)NC(=O)[C@H](C)NC(=O)[C@H](CCC(=O)O)NC(=O)[C@H](CC(=O)O)NC(=O)[C@H](Cc2c[nH]c3ccccc23)NC(=O)[C@H](Cc2ccccc2)NC1=O` [SYN1382] (Ac-VMHCFWDEAFRCDQG-NH2; disulfide 4-12 (inferred)), on soluble human FcRn (Table 2), the “Kd Ratio 7.4/6.0” value is listed as 25.
